#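 Protocol summary: plate cells (96-well), add compound at 5 concentrations, incubate 48 h, interpolate endpoints linearly. Here, GI50 denotes the concentration required for 50% inhibition of growth.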 Calls of active or inactive are those of the source. Cut-off read from the data, not from the text of the source: active = GI50 up to about 1.1 µM and inactive = higher.
# How the values were obtained:
# Assay in all cases: NCI-60 cell line screen, 48 h
# [1] = tested on: A498
# [2] = tested on: ACHN
# [3] = tested on: CAKI-1
# [4] = tested on: DU-145
# [5] = tested on: HOP-62
# [6] = tested on: Hs-578T
# [7] = tested on: KM12
# [8] = tested on: MDA-MB-231
# [9] = tested on: NCI-H522
# [10] = tested on: OVCAR-5
# [11] = tested on: PC-3
# [12] = tested on: SF-295
# [13] = tested on: SF-539
# [14] = tested on: SN12C
# [15] = tested on: T47D
# [16] = tested on: UACC-257
# [17] = tested on: UACC-62
# [18] = tested on: HL-60
# [19] = tested on: K562
# [20] = tested on: UO-31
SMILES,GI50 [1],GI50 [2],GI50 [3],GI50 [4],GI50 [5],GI50 [6],GI50 [7],GI50 [8],GI50 [9],GI50 [10],GI50 [11],GI50 [12],GI50 [13],GI50 [14],GI50 [15],GI50 [16],GI50 [17],GI50 [18],GI50 [19],GI50 [20]
CCOC(=O)/C(=C\c1ccc(CO)o1)P(=O)(OCC)OCC,55.3 µM (inactive),61.1 µM (inactive),55.7 µM (inactive),41.9 µM (inactive),45.8 µM (inactive),36.1 µM (inactive),33.3 µM (inactive),31.7 µM (inactive),3.88 µM (inactive),50 µM (inactive),5.43 µM (inactive),> 100 µM (inactive),19.7 µM (inactive),30.5 µM (inactive),91.2 µM (inactive),44.6 µM (inactive),38.7 µM (inactive),,,
COc1cc([C@@H]2c3cc4c(cc3[C@@H](OC3OC5COC(C)OC5C(OC(=O)CN5CCN(C)CC5)C3OC(=O)CN3CCN(C)CC3)C3COC(=O)[C@@H]32)OCO4)cc(OC)c1OC(=O)CN1CCN(C)CC1 (some centres undefined),,54.5 µM (inactive),37.7 µM (inactive),44.7 µM (inactive),40.2 µM (inactive),56 µM (inactive),> 100 µM (inactive),54.3 µM (inactive),27.2 µM (inactive),> 100 µM (inactive),> 100 µM (inactive),38.1 µM (inactive),23.1 µM (inactive),44.1 µM (inactive),71.1 µM (inactive),> 100 µM (inactive),> 100 µM (inactive),11.5 µM (inactive),67.5 µM (inactive),68.9 µM (inactive)
COC(=O)C1C=CN(N(C)C)C2=C1C(=O)c1c(O)cccc1C2=O (centres undefined),2.81 µM (inactive),3.37 µM (inactive),2.47 µM (inactive),1.58 µM (inactive),2.68 µM (inactive),2.69 µM (inactive),2.07 µM (inactive),1.89 µM (inactive),2.48 µM (inactive),2.42 µM (inactive),2.96 µM (inactive),1.65 µM (inactive),,1.73 µM (inactive),2.32 µM (inactive),1.41 µM (inactive),1.04 µM (active),,3.09 µM (inactive),3.82 µM (inactive)
CC(=O)n1[nH]c(=O)n(-c2ccccc2)c1=O,,> 100 µM (inactive),> 100 µM (inactive),> 100 µM (inactive),> 100 µM (inactive),> 100 µM (inactive),> 100 µM (inactive),> 100 µM (inactive),> 100 µM (inactive),> 100 µM (inactive),> 100 µM (inactive),> 100 µM (inactive),,> 100 µM (inactive),> 100 µM (inactive),> 100 µM (inactive),> 100 µM (inactive),> 100 µM (inactive),> 100 µM (inactive),> 100 µM (inactive)
CSc1scc2c1/C(=N/NC(N)=O)CCC2,39.7 µM (inactive),> 100 µM (inactive),69.7 µM (inactive),45.2 µM (inactive),> 100 µM (inactive),82.6 µM (inactive),86.1 µM (inactive),> 100 µM (inactive),,> 100 µM (inactive),93.5 µM (inactive),60.5 µM (inactive),> 100 µM (inactive),> 100 µM (inactive),> 100 µM (inactive),> 100 µM (inactive),> 100 µM (inactive),,> 100 µM (inactive),> 100 µM (inactive)
CC1=NN(C(=O)CC(=O)Nc2cccc(Cl)c2)C(=O)C1/N=N\c1ccc(S(=O)(=O)c2ccc(/N=N/C3C(=O)N(C(=O)CC(=O)Nc4cccc(Cl)c4)N=C3C)cc2)cc1 (centres undefined),,> 100 µM (inactive),> 100 µM (inactive),83.8 µM (inactive),> 100 µM (inactive),> 100 µM (inactive),> 100 µM (inactive),16.1 µM (inactive),> 100 µM (inactive),> 100 µM (inactive),> 100 µM (inactive),> 100 µM (inactive),22.6 µM (inactive),> 100 µM (inactive),> 100 µM (inactive),> 100 µM (inactive),> 100 µM (inactive),> 100 µM (inactive),> 100 µM (inactive),> 100 µM (inactive)
